Measurements: publication PMC4240039, “Interactions of ABCG2 (BCRP) with epidermal growth factor receptor kinase inhibitors developed for molecular imaging” (Frontiers in Pharmacology, 2014)

Legend:
[1] = biological target: T1, BCRP (Homo sapiens, UniProt Q9UNQ0); experiment: BODIPY-prazosin accumulation assay in MDCK-BCRP cells; format: cell-based; details: 500 nM BODIPY-prazosin, 1 h incubation; test compounds 400 nM
T1 construct: expressed in transfected cells; host or cells: MDCK (MDCKII) cells, pcDNA3 vector; gift from Prof; Qingcheng Mao
T1 sequence (Q9UNQ0 1-655): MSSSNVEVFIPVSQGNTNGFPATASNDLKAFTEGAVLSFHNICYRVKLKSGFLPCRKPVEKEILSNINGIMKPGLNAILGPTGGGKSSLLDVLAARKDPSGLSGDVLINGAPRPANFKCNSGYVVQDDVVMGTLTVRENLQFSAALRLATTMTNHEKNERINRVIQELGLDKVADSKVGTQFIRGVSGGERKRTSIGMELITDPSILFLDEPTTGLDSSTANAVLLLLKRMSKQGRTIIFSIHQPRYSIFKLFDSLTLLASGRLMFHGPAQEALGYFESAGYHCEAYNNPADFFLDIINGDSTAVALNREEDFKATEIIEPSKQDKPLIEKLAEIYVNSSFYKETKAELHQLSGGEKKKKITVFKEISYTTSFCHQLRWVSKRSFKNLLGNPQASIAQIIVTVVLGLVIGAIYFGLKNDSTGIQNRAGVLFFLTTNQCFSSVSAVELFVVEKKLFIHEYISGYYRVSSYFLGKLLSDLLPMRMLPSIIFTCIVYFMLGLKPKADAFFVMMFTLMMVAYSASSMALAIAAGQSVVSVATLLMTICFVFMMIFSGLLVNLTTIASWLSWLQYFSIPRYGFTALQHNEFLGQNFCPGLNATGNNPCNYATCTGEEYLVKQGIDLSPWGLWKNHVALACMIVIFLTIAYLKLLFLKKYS
Method: Accumulation assays with fluorescent substrates of eﬄux transporter are commonly utilized to determine the inhibitory effect of a test compound ([Brouwer et al., 2013]). In this study, MDCK-CT and MDCK-BCRP cells were seeded at density of 20 × 10^4 cells/well in 24 well plates. Experiments were performed two days after achieving 100% confluent monolayers. Prior to the experiment, the medium was removed and cells were incubated for 1 h with one of the test compounds dissolved in DMEM with 5 mM 4-(2-Hydroxyethyl)-1-piperazineethanesulfonic acid (HEPES), pH 7.4. In the accumulation phase cells were co-incubated with 500 nM BODIPY-prazosin (a BCRP/P-gp substrate; [Dey et al., 1997]; [Ni et al., 2010]) and one of the test compounds dissolved in DMEM with 5 mM HEPES. After 1 h, the cells were washed three times with ice-cold PBS. Intracellular fluorescence intensity of BODIPY-prazosin was measured within 1 h by a plate reader (Synergy HT, BioTek, Winooski, VT, USA) with excitation wavelength 485 nm and emission wavelength 528 nm.
FIGURE 4 Effect of EGFRIs on BODIPY-prazosin accumulation. Cell protein concentration-normalized BODIPY prazosin fluorescence in MDCK-BCRP cells were evaluated in the presence and the absence of 400 nM of the tested compounds following 1 h incubation.

[2] = tested on: MDCK-CT cells; experiment: MTT cell proliferation assay, vector control cells; format: cell-based, canine; details: Canis lupus familiaris, 72 h, read-out: IC50 for inhibition of control cell proliferation
Method: (§1) Madin-Darbey canine kidney (MDCK) cells transfected with pcDNA empty vector (MDCK-pcDNA3; MDCK-CT) and cDNA coding for wild-type BCRP (MDCK-BCRP) cells were a generous gift from Prof. Qingcheng Mao (University of Washington, Seattle, WA, USA). The human lung carcinoma cell lines A549 and HCC827 cells were provided by Prof. Eyal Mishani.
Madin-Darbey canine kidney vector (MDCK-pcDNA3) and MDCK-BCRP cells were grown in Eagle’s minimum essential medium (MEM) supplemented with 10% fetal bovine serum, 2 mM L-glutamine, 100 units/mL penicillin, and 100 μg/mL streptomycin, at 37∘C and 5% CO2-humidified incubator. The BCRP positive cells were selected by supplementation of 0.05 mg/mL gentamicin to the growth medium. […] The cells were treated as described above.
Briefly, Cells were seeded at density of 80 × 10^3 cells per well in 24 well plates. […] Then, the medium was removed and 300 μl of 0.5 mg/mL MTT solution in Hank’s Balanced Salt Solution (HBSS) was added to each well. After 2 h incubation at 37∘C, the MTT solution was removed and the cells were washed three times with HBSS, then the culture plates were incubated with 500 μl dimethyl sulphoxide (DMSO) for 15 min at room temperature. The absorption was detected at 540 nm using the Synergy plate reader. The proliferation of cells from MTT studies was expressed as a percent of control, DMSO-treated cells of the same type. An inhibitory sigmoidal model was fitted to the experimental data using Phoenix WinNonlin 6.3 (Pharsight, Mountain View, CA, USA).

[3] = tested on: P-gp; design: method as in Abourbeh et al., 2007; details: ref Abourbeh et al., 2007; cited from earlier work
[4] = MTT cell proliferation assay, BCRP-overexpressing cells; format: cell-based, canine; details: dog, MDCK-BCRP cells (MDCK cells transfected with wild-type BCRP), read-out: IC50 for inhibition of cell proliferation in MDCK-BCRP cells
Method: as §1
Madin-Darbey canine kidney vector (MDCK-pcDNA3) and MDCK-BCRP cells were grown in Eagle’s minimum essential medium (MEM) supplemented with 10% fetal bovine serum, 2 mM L-glutamine, 100 units/mL penicillin, and 100 μg/mL streptomycin, at 37∘C and 5% CO2-humidified incubator. The BCRP positive cells were selected by supplementation of 0.05 mg/mL gentamicin to the growth medium. The adherent cells, continuously cultivated in 10 cm^2 cell culture plates, were grown to nearly 80–90% confluence before they were harvested by trypsin-EDTA 0.25% solution. A549 were grown in Ham’s F12 growth medium and HCC827 were grown in RPMI-1640 growth medium. The cells were treated as described above.
The assay was performed as described earlier ([Rajendra et al., 2003]) with minor modifications. Briefly, Cells were seeded at density of 80 × 10^3 cells per well in 24 well plates. On the following day, the cells were incubated (in hexaplicates) with 0.2–102.4 μM of the tested EGFRIs or with the vehicle in the growth medium for 72 h. Then, the medium was removed and 300 μl of 0.5 mg/mL MTT solution in Hank’s Balanced Salt Solution (HBSS) was added to each well. After 2 h incubation at 37∘C, the MTT solution was removed and the cells were washed three times with HBSS, then the culture plates were incubated with 500 μl dimethyl sulphoxide (DMSO) for 15 min at room temperature. The absorption was detected at 540 nm using the Synergy plate reader. The proliferation of cells from MTT studies was expressed as a percent of control, DMSO-treated cells of the same type. An inhibitory sigmoidal model was fitted to the experimental data using Phoenix WinNonlin 6.3 (Pharsight, Mountain View, CA, USA).

[5] = design: method as in Dissoki et al., 2007; details: ref Dissoki et al., 2007; cited from earlier work
[6] = biological target: T2, human BCRP ATPase (Homo sapiens, UniProt Q9UNQ0); experiment: BCRP ATPase activation assay ([…] kit, Sf9 membrane preparations); format: biochemical; details: for Activation of BCRP ATPase: 400 nM (submicromolar), Sf9 membranes containing BCRP, vanadate-sensitive ATPase activity; for BCRP ATPase activation relative to that produced by gefitinib: 400 nM, Sf9 membranes
T2 construct: purchased SOLVO Biotechnology, Szeged, Hungary; host or cells: Sf9 membrane preparations
T2 sequence (Q9UNQ0 1-655): T1 sequence (Q9UNQ0 1-655)
Method: ATPase activity was evaluated using […] kits (SOLVO Biotechnology, Szeged, Hungary), according to the manufacturer’s instructions.
FIGURE 2 Interactions of EGFRIs with BCRP ATPase. (A) Activation of BCRP-ATPase in Sf9 membrane preparations containing BCRP. Membranes were incubated with ATP and the tested compounds at 400 nM in the presence and absence of sodium orthovanadate. (B) Inhibition of sulfasalazine-stimulated BCRP-ATPase. The effect of EGFRIs was evaluated in sulfasalazine (10 μM)-stimulated membranes. Data are presented as means ± SD of the vanadate-sensitive ATPase activity from two experiments in duplicates.

[7] = tested on: EGFR; design: method as in earlier work; details: A431 cell lysates; ref Shaul et al., 2004; Mishani et al., 2005; Dissoki et al., 2007; read-out: EGFR binding potency IC50; cited from earlier work

COc1ccc2c3c([nH]c2c1)[C@H](C=C(C)C)N1C(=O)[C@@H]2CCCN2C(=O)[C@@H]1C3 [FTC, fumitremorgin C]
BODIPY-prazosin accumulation in MDCK-BCRP cells [1]: significantly (p < 0.01) enhanced

CN(C)C/C=C/C(=O)Nc1ccc2ncnc(Nc3cc(Cl)c(Cl)cc3F)c2c1 [ML04]
IC50 [2]: 2100 ± 600 nM | P-gp substrate status [3]: found to be a P-gp substrate | IC50 at 72 h [4]: > 50000 nM | Log P [5]: 3.9 | Activation of BCRP ATPase [6]: activated BCRP ATPase

O=C(CCl)Nc1ccc2ncnc(Nc3cc(Cl)c(Cl)cc3F)c2c1 [ML05]
IC50 [7]: 10 nM | Log P [5]: 4.12 | Activation of BCRP ATPase [6]: activated BCRP ATPase | BCRP ATPase activation relative to that produced by gefitinib [6]: ≤ 40%

CN(C)C/C=C/C(=O)Nc1ccc2ncnc(Nc3cccc(I)c3)c2c1 [ML06]
IC50 [2]: 2200 ± 700 nM | IC50 at 72 h [4]: > 50000 nM | IC50 [7]: 0.05 to 5 nM | Activation of BCRP ATPase [6]: activated BCRP ATPase | BCRP ATPase activation relative to that produced by gefitinib [6]: ≤ 40%

O=C(/C=C/CN(CCO)CCO)Nc1cc2c(Nc3cc(Cl)c(Cl)cc3F)ncnc2cc1OCCOCCOCCOCCF [ML10]
Activation of BCRP ATPase [6]: no activating effect

O=C(CCl)Nc1cc2c(Nc3cc(Cl)c(Cl)cc3F)ncnc2cc1OCCOCCOCCOCCOCCOCCF [PEG6-ML05]
IC50 [2]: 2800 ± 3100 nM | IC50 at 72 h [4]: > 50000 nM | IC50 [7]: 30 to 45 nM | Log P [5]: 4.75 | Activation of BCRP ATPase [6]: no activating effect

COCC(=O)Nc1ccc2ncnc(Nc3cccc(Br)c3)c2c1 [methoxy-Br-ML03, N-{4-[(3-Bromo-phenyl)amino]-quinazoline-6-yl}-2-methoxyacetamide]
IC50 [2]: 1800 ± 1200 nM | IC50 at 72 h [4]: > 50000 nM | Activation of BCRP ATPase [6]: activated BCRP ATPase

COCC(=O)Nc1ccc2ncnc(Nc3cc(Cl)c(Cl)cc3F)c2c1 [methoxy-ML03]
IC50 [7]: 252 nM | Activation of BCRP ATPase [6]: activated BCRP ATPase
